Data published in ChEMBL document CHEMBL3045725, “Synthesis and antimicrobial activity of some (3-phenyl-5-(1-phenyl-3-aryl-1H-pyrazol-4-yl)-4,5-dihydro-1H-pyrazol-1-yl)(pyridin-4-yl)methanones: new derivatives of 1,3,5-trisubstituted pyrazolines” (2013).
Converted amounts (≈) assume the structure as drawn.

Legend:
Assay type in all cases: functional
Aspergillus flavus = assay: Antifungal activity against Aspergillus flavus assessed as growth inhibition after 24 hr by NCCLS broth microdilution method
Aspergillus niger = assay: Antifungal activity against Aspergillus niger assessed as growth inhibition after 24 hr by NCCLS broth microdilution method
Candida tropicalis = assay: Antifungal activity against Candida tropicalis assessed as growth inhibition after 24 hr by NCCLS broth microdilution method
Candida albicans = assay: Antifungal activity against Candida albicans assessed as growth inhibition after 24 hr by NCCLS broth microdilution method
Pseudomonas aeruginosa = assay: Antibacterial activity against Pseudomonas aeruginosa assessed as growth inhibition after 24 hr by NCCLS broth microdilution method
Escherichia coli = assay: Antibacterial activity against Escherichia coli assessed as growth inhibition after 24 hr by NCCLS broth microdilution method
Bacillus subtilis = assay: Antibacterial activity against Bacillus subtilis assessed as growth inhibition after 24 hr by NCCLS broth microdilution method
Bacillus pumilus = assay: Antibacterial activity against Bacillus pumilus assessed as growth inhibition after 24 hr by NCCLS broth microdilution method
Staphylococcus aureus = assay: Antibacterial activity against Staphylococcus aureus assessed as growth inhibition after 24 hr by NCCLS broth microdilution method

Compound | MIC (Aspergillus flavus) | MIC (Aspergillus niger) | MIC (Candida tropicalis) | MIC (Candida albicans) | MIC (Pseudomonas aeruginosa) | MIC (Escherichia coli) | MIC (Bacillus subtilis) | MIC (Bacillus pumilus) | MIC (Staphylococcus aureus)
COc1ccc(-c2nn(-c3ccccc3)cc2C2CC(c3ccccc3)=NN2C(=O)c2ccncc2)cc1 (racemic) | 50 µg/mL (≈ 100 µM) | 50 µg/mL (≈ 100 µM) | 12.5 µg/mL (≈ 25 µM) | 12.5 µg/mL (≈ 25 µM) | 12.5 µg/mL (≈ 25 µM) | 6.25 µg/mL (≈ 12.5 µM) | 6.25 µg/mL (≈ 12.5 µM) | 6.25 µg/mL (≈ 12.5 µM) | 6.25 µg/mL (≈ 12.5 µM)
COc1ccccc1-c1nn(-c2ccccc2)cc1C1CC(c2ccccc2)=NN1C(=O)c1ccncc1 (racemic) | 50 µg/mL (≈ 100 µM) | 50 µg/mL (≈ 100 µM) | 6.25 µg/mL (≈ 12.5 µM) | 6.25 µg/mL (≈ 12.5 µM) | 6.25 µg/mL (≈ 12.5 µM) | 6.25 µg/mL (≈ 12.5 µM) | 6.25 µg/mL (≈ 12.5 µM) | 6.25 µg/mL (≈ 12.5 µM) | 6.25 µg/mL (≈ 12.5 µM)
Cc1ccc(-c2nn(-c3ccccc3)cc2C2CC(c3ccccc3)=NN2C(=O)c2ccncc2)cc1 (racemic) | 100 µg/mL (≈ 207 µM) | 100 µg/mL (≈ 207 µM) | 50 µg/mL (≈ 103 µM) | 25 µg/mL (≈ 51.7 µM) | 25 µg/mL (≈ 51.7 µM) | 12.5 µg/mL (≈ 25.8 µM) | 12.5 µg/mL (≈ 25.8 µM) | 12.5 µg/mL (≈ 25.8 µM) | 6.25 µg/mL (≈ 12.9 µM)
O=C(c1ccncc1)N1N=C(c2ccccc2)CC1c1cn(-c2ccccc2)nc1-c1ccc(F)cc1 (racemic) | 200 µg/mL (≈ 410 µM) | 200 µg/mL (≈ 410 µM) | 50 µg/mL (≈ 103 µM) | 50 µg/mL (≈ 103 µM) | 12.5 µg/mL (≈ 25.6 µM) | 12.5 µg/mL (≈ 25.6 µM) | 12.5 µg/mL (≈ 25.6 µM) | 25 µg/mL (≈ 51.3 µM) | 6.25 µg/mL (≈ 12.8 µM)
O=C(c1ccncc1)N1N=C(c2ccccc2)CC1c1cn(-c2ccccc2)nc1-c1ccc(Cl)cc1 (racemic) | 200 µg/mL (≈ 397 µM) | > 200 µg/mL | 100 µg/mL (≈ 198 µM) | 100 µg/mL (≈ 198 µM) | 25 µg/mL (≈ 49.6 µM) | 25 µg/mL (≈ 49.6 µM) | 25 µg/mL (≈ 49.6 µM) | 25 µg/mL (≈ 49.6 µM) | 12.5 µg/mL (≈ 24.8 µM)
O=C(c1ccncc1)N1N=C(c2ccccc2)CC1c1cn(-c2ccccc2)nc1-c1ccc(Br)cc1 (racemic) | 200 µg/mL (≈ 365 µM) | > 200 µg/mL | 100 µg/mL (≈ 182 µM) | 50 µg/mL (≈ 91.2 µM) | 50 µg/mL (≈ 91.2 µM) | 50 µg/mL (≈ 91.2 µM) | 25 µg/mL (≈ 45.6 µM) | 25 µg/mL (≈ 45.6 µM) | 12.5 µg/mL (≈ 22.8 µM)
O=C(c1ccncc1)N1N=C(c2ccccc2)CC1c1cn(-c2ccccc2)nc1-c1ccccc1 (racemic) | > 200 µg/mL | 100 µg/mL (≈ 213 µM) | 200 µg/mL (≈ 426 µM) | 200 µg/mL (≈ 426 µM) | 50 µg/mL (≈ 106 µM) | 50 µg/mL (≈ 106 µM) | 50 µg/mL (≈ 106 µM) | 50 µg/mL (≈ 106 µM) | 25 µg/mL (≈ 53.2 µM)
O=C(O)c1cn(C2CC2)c2cc(N3CCNCC3)c(F)cc2c1=O [CIPROFLOXACIN] |  |  |  |  | 3.12 µg/mL (≈ 9.43 µM) | 3.12 µg/mL (≈ 9.43 µM) | 3.12 µg/mL (≈ 9.43 µM) | 3.12 µg/mL (≈ 9.43 µM) | 3.12 µg/mL (≈ 9.43 µM)
OC(Cn1cncn1)(Cn1cncn1)c1ccc(F)cc1F [FLUCONAZOLE] | 12.5 µg/mL (≈ 40.8 µM) | 12.5 µg/mL (≈ 40.8 µM) | 6.25 µg/mL (≈ 20.4 µM) | 3.12 µg/mL (≈ 10.2 µM) |  |  |  |  | 
